pIC50: −log10 of the molar value.
Tests used:
[1] = biological target: Rho-associated protein kinase 2 (Homo sapiens, UniProt O75116); test: Inhibition of ROCK-2 (unknown origin)
[2] = biological target: Rho-associated protein kinase 1 (Homo sapiens, UniProt Q13464); test: Inhibition of ROCK-1 (unknown origin)
[3] = Inhibition of PKA (unknown origin); design: species or system Homo sapiens
[4] = Inhibition of PKA (unknown origin) using cyclic AMP response element binding protein as substrate after 5 mins in presence of [gamma-32P]-ATP; design: species or system Homo sapiens

Rho-associated protein kinase 1, sequence (Q13464 whole entry): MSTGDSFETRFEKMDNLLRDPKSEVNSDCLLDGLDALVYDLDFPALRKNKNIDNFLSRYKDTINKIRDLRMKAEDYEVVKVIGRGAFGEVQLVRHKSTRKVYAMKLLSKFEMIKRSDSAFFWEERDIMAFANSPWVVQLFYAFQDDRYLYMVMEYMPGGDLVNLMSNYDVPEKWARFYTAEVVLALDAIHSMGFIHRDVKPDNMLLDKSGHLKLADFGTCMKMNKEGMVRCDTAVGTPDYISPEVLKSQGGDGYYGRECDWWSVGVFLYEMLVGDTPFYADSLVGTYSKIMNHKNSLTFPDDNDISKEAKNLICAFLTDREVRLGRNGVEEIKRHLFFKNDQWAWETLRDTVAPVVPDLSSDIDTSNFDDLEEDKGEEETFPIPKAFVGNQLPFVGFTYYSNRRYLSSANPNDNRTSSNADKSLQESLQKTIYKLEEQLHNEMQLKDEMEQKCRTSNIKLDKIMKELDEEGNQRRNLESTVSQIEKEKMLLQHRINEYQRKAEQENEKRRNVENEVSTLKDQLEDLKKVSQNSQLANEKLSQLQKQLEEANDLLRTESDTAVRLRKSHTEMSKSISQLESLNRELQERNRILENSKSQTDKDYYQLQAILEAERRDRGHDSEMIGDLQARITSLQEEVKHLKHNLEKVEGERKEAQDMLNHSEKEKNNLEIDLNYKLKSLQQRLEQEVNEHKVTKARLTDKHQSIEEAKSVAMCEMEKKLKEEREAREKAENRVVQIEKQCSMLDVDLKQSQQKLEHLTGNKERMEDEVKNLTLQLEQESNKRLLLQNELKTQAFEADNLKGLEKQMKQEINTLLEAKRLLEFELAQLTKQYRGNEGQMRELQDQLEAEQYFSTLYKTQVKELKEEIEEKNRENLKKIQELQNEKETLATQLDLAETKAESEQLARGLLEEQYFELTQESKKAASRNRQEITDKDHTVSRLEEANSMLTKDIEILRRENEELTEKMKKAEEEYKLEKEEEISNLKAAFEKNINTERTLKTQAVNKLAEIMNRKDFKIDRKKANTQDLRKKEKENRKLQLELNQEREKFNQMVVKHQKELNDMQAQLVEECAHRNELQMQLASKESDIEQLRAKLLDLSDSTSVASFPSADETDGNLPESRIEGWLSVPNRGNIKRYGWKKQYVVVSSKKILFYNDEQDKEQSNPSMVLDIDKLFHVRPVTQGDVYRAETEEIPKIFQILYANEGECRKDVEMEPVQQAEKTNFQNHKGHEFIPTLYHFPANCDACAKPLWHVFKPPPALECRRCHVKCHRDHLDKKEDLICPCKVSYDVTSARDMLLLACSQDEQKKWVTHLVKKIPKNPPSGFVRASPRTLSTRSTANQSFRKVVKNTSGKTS
Rho-associated protein kinase 2, sequence (O75116 whole entry): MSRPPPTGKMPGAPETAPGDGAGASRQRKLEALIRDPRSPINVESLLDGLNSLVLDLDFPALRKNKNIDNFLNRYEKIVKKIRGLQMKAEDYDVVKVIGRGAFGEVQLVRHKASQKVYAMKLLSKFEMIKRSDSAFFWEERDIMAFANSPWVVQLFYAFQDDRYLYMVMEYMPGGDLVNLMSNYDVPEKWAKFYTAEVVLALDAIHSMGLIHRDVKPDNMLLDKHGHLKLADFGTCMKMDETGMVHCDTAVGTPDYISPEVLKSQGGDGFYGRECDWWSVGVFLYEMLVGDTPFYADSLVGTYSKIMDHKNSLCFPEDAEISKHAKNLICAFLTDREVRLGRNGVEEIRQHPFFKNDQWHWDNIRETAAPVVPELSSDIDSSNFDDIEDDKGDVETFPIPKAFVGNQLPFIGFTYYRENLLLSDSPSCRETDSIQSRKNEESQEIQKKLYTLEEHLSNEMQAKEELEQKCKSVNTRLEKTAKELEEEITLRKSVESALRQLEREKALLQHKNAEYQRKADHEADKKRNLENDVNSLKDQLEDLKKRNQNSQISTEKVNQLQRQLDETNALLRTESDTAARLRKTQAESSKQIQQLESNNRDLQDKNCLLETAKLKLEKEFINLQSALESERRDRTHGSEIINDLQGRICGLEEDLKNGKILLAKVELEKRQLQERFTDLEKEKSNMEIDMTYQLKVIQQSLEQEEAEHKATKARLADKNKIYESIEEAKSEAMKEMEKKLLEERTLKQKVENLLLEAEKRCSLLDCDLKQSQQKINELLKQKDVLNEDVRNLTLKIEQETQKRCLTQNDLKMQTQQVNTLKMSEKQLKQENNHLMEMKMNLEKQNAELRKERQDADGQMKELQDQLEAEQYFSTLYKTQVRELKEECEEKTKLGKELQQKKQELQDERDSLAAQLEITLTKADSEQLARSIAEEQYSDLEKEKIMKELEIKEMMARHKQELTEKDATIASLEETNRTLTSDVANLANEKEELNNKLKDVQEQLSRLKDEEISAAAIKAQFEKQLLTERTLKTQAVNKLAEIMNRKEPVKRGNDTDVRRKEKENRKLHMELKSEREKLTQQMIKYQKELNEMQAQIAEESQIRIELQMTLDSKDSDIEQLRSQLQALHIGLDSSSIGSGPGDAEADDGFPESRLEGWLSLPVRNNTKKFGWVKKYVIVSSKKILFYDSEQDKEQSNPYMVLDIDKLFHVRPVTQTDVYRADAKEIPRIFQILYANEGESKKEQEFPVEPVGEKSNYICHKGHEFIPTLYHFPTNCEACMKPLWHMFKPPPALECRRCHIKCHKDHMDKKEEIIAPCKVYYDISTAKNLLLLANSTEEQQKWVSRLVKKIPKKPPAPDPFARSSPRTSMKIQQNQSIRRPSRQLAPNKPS

| pIC50 [1] | pIC50 [2] | pIC50 [3] | pIC50 [4] | Structure (SMILES) |
| --- | --- | --- | --- | --- |
| 8.00 | 7.52 | 6.54 |  | C[C@@H](N)[C@H]1CC[C@H](C(=O)Nc2ccnc3[nH]ccc23)CC1 |
|  |  |  | 5.52 | Cc1cncc2cccc(S(=O)(=O)N3CCCNC[C@@H]3C)c12 |

Reference: ChEMBL document CHEMBL3792387, “A review on ROCK-II inhibitors: From molecular modelling to synthesis” (Bioorg Med Chem Lett, 2016)
